The values that follow come from publication PMC8260592 (Scientific Reports, 2021).

Data set [1] concerns AChE. The following applies: cited from earlier work.
A further data set has as its target T1, BChE (equine serum) (Equus caballus, UniProt P81908).
T1 construct: BChE (equine serum); purchased Sigma-Aldrich; host or cells: equine serum
Briefly: biochemical. The conditions noted are these: for remaining activity at 10 µM: read-out: Residual activity at 10 µM (%) BChE. As to the method:
(§1) AChE and BChE inhibitory activities were measured after preincubating enzymes with inhibitors for 15 min before adding substrates (ATCI and BTCI, respectively) and DTNB. AChE activities were assayed as previously described, with slight modification[21],[22]. […] MAO-A and MAO-B activities were determined using a continuous spectrophotometric method, as described previously[23],[24]. […] Reaction rates are expressed as changes in absorbance per min. […]

The target of data set [2] is AChE (Type VI-S from Electrophorus electricus) (Electrophorus electricus, UniProt O42275). Briefly: biochemical. The following applies: for SI: IC50 for BChE divided by IC50 for AChE; for remaining activity at 10 µM: read-out: Residual activity at 10 µM (%) AChE. As to the method:
as §1

The target of data set [3] is T2, MAO-B (Homo sapiens, UniProt P27338).
T2 construct: purchased Sigma-Aldrich
T2 sequence (P27338 1-520): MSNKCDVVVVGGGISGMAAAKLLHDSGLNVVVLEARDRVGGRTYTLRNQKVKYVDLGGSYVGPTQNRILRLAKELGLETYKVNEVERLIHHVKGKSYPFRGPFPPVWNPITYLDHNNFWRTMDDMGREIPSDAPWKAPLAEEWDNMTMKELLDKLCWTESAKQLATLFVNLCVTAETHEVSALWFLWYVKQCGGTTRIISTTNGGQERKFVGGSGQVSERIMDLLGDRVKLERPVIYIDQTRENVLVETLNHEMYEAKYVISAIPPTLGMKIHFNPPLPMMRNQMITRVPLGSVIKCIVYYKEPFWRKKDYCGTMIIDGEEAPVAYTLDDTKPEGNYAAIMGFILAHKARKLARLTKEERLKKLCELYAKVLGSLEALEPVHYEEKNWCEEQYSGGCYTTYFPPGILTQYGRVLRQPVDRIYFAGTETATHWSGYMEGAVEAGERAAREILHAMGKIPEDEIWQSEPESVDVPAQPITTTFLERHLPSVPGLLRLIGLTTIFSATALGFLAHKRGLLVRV
Briefly: biochemical. The conditions noted are these: for IC50: read-out: IC50 (µM) MAO-B; for remaining activity at 10 µM: read-out: Residual activity at 10 µM (%) MAO-B. As to the method:
(§2) AChE and BChE inhibitory activities were measured after preincubating enzymes with inhibitors for 15 min before adding substrates (ATCI and BTCI, respectively) and DTNB. AChE activities were assayed as previously described, with slight modification[21],[22]. […] MAO-A and MAO-B activities were determined using a continuous spectrophotometric method, as described previously[23],[24]. […] Reaction rates are expressed as changes in absorbance per min.
(§3) Inhibitory patterns and Ki values were determined using Lineweaver–Burk (LB) plots and secondary plots of LB slopes.

In another data set the target is T3, Recombinant human MAO-A (Homo sapiens, UniProt P21397).
T3 construct: purchased Sigma-Aldrich
T3 sequence (P21397 1-527): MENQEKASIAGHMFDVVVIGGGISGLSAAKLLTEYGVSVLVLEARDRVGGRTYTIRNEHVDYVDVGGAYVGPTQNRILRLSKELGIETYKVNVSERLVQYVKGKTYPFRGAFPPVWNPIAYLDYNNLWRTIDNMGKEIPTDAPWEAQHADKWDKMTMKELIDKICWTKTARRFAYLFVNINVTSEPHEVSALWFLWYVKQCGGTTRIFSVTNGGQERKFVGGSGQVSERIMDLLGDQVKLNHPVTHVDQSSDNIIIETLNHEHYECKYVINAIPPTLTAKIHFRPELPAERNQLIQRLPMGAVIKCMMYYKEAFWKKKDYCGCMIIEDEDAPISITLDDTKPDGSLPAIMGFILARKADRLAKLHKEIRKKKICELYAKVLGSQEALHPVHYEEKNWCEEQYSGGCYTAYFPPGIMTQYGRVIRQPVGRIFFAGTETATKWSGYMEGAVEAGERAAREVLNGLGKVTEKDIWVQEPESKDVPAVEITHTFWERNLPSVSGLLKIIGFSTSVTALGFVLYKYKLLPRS
Briefly: biochemical. The conditions noted are these: for IC50: read-out: IC50 (µM) MAO-A; for remaining activity at 10 µM: read-out: Residual activity at 10 µM (%) MAO-A. The method, then:
as §2, §3

The target in another data set is T4, BACE-1 (Homo sapiens, UniProt P56817).
T4 construct: purchased Sigma-Aldrich
T4 sequence (P56817 46-457): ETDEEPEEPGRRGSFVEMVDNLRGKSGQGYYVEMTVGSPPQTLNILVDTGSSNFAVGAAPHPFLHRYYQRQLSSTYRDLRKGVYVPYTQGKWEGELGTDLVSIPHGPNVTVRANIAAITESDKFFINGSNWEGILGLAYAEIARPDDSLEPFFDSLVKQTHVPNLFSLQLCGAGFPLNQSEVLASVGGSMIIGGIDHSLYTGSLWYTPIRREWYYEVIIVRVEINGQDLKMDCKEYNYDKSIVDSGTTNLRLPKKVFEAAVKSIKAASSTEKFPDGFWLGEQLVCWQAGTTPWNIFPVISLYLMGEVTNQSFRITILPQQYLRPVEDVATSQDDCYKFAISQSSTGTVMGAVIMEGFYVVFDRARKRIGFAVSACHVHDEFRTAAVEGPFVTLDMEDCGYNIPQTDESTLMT
Briefly: BACE-1 activity detection kit (fluorescence). The data set is classed as biochemical. The following applies: read-out: Residual activity at 10 µM (%) BACE-1.

Data set [4] concerns Madin-Darby canine kidney (MDCK) cells. Briefly: Cytotoxicity test, CCK-8 assay. The conditions noted are these: 50 µM, 24 h, CCK-8. As to the method:
(§4) Madin-Darby canine kidney (MDCK) cells and human acute promyelocytic leukemia (HL-60) cells were obtained from the Korean Cell Line Bank (Seoul, Korea). […] Cultures were maintained at 37 °C under 5% CO2, and media were changed every two days.
(§5) Cell viabilities were determined using the CCK-8 assay. Briefly, MDCK cells or HL-60 cells were resuspended at 1 × 10^5 or 3 × 10^5 cells/mL and suspensions (100 µL) were added to wells of a 96-well plate and incubated in 5% CO2 atmosphere at 37 °C for 24 h. After incubation, 100 µL of each medium was treated with compounds at 1, 3, 10, 30, or 50 µM and incubated in 5% CO2 at 37 °C for 24 h. CCK-8 (10 µL/well) was then added to 100 µL aliquots from each cell and incubated 2–4 h. Absorbances were measured at 450 nm using a microplate reader (Versamax, Molecular Devices, San Jose, CA, USA).
(§6) Both cell lines were treated with each compound (at 1, 3, 10, 30, or 50 µM) for 24 h. Culture supernatants were then removed and CCK-8 was added. […] Data are expressed as the means ± SDs of triplicate experiments.

Data set [5] deals with human acute promyelocytic leukemia (HL-60) cells. Briefly: Cytotoxicity test, CCK-8 assay. The following applies: 50 µM, 24 h, CCK-8. As to the method:
as §4, §5, §6

Data set [6] deals with T5, AChE (Electrophorus electricus, UniProt O42275). Briefly: Kinetics of AChE inhibition (Lineweaver-Burk and secondary plots). The data set is classed as biochemical. The method, then: as §3
T5 sequence (O42275 24-633): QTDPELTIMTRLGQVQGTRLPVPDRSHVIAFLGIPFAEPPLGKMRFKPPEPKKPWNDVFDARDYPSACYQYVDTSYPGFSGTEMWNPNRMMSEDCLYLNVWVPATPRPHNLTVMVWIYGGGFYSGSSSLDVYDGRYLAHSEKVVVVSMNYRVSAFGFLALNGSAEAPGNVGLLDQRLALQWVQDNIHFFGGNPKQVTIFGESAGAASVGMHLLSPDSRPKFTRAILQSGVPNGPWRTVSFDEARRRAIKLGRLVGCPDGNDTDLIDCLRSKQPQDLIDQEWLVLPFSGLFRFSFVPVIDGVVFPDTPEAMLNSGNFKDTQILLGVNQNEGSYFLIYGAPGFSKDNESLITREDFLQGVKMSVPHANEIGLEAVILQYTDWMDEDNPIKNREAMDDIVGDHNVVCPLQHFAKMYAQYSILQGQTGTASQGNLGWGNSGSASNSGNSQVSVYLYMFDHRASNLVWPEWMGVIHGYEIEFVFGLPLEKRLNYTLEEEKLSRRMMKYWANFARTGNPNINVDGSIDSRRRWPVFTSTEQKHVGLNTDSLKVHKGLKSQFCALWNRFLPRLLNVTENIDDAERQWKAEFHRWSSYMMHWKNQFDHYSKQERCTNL
Substrate concentrations ranged from 0.05 to 1.0 mM. […] Initial reaction rates are expressed as increases in absorbance per min.

The target of data set [7] is T5, AChE. In words: Reversibility of AChE inhibition by dialysis. The format is biochemical. The method, then:
(§7) After preincubating three compounds or reference inhibitors with enzymes for 15 min, residual activities of undialyzed (AU) and dialyzed (AD) samples were expressed as percentages of those of non-inhibitor treated controls. Reversibilities were assessed using AU and AD values and compared with those of reference compounds.
(§8) After preincubating the compounds with enzymes for 15 min, the mixtures were dialyzed for 6 h with two buffer changes. Results are the averages of duplicate or triplicate experiments.

For data set [8], the target named is T2, MAO-B. In words: Kinetics of MAO-B inhibition (Lineweaver-Burk and secondary plots). The data set is classed as biochemical. As to the method: as §3
In data set [9] the target is T2, MAO-B. Briefly: Reversibility of MAO-B inhibition by dialysis. The format is biochemical. As to the method:
as §7, §8

Values after ≈ are worked out from the molar mass of the structure shown. “Also recorded” adds a separate entry of the source. Like-named read-outs stand apart in the source and are kept apart here. Some results are limits rather than exact numbers.

AChE (Type VI-S from Electrophorus electricus), sequence (O42275 24-633): as above
T1 sequence (P81908 whole entry): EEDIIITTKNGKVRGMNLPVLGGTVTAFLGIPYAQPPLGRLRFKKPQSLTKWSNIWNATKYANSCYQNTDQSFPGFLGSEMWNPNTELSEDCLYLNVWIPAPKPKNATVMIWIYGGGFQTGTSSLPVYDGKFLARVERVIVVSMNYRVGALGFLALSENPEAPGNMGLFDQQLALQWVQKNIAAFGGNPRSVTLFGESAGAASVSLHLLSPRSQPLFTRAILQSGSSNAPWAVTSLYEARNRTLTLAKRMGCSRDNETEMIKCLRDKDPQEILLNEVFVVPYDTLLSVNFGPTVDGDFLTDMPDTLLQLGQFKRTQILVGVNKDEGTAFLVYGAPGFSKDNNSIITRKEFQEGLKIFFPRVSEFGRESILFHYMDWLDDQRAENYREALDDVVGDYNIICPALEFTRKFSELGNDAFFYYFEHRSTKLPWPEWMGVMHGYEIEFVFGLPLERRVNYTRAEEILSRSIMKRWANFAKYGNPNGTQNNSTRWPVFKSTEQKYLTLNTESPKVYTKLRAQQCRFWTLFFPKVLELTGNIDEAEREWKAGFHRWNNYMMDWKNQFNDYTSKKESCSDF

Regarding `COc1c(O)cc2oc3cc(O)c(CC=C(C)C)c(O)c3c(=O)c2c1CC=C(C)C` [α-mangostin], the figures for the IC50 in the data set on AChE [1] (ref 53) and in the data set on AChE [1] (ref 54) were 2.48 µM and 6.3 µM, respectively.

Consider `COc1cc(/C=C/C(=O)CC(=O)/C=C/c2ccc(O)c(OC)c2)ccc1O` [curcumin], for which the IC50 in the data set with AChE [1] (ref 51) was 23.5 µM.

As for `COc1cc2oc(-c3ccc(O)cc3)cc(=O)c2c(O)c1[C@@H]1O[C@H](CO)[C@@H](O)[C@H](O)[C@H]1O` [swertisin, isovitexin-7-O-methyl ether], the IC50 in the data set with AChE [1] (converted from µg/mL) is 71.9 µM. In addition, the “IC50 AChE” value in the data set on AChE [1] (ref 49) is given as 32.09 µg/mL (≈ 71.9 µM).

Consider `COc1ccc2c3c1O[C@H]1C[C@@H](O)C=C[C@@]31CCN(C)C2` [galantamine], for which the IC50 with AChE [1] (ref 46) was […]. In the data set with AChE [1] (ref 47), the IC50 was […] and the “IC50 AChE” value was […].

As to `O=C(/C=C/c1ccc(O)cc1)OC[C@H]1O[C@@H](Oc2c(-c3ccc(O)cc3)oc3cc(O)cc(O)c3c2=O)[C@H](O)[C@@H](O)[C@@H]1O` [tiliroside], the IC50 with AChE [1] (ref 50) is 23.5 µM.

For the molecule heyneanol A, the IC50 in the data set on AChE [1] (ref 56) was 1.66 µM.

As to `O=c1c(O)c(-c2ccc(O)c(O)c2)oc2cc(O)cc(O)c12` [quercetin], the IC50 with AChE [1] (ref 50) is […].

On to `Oc1ccc([C@H]2c3c(O)cc(O)cc3[C@H]3c4c(cc(O)cc4[C@@H]2c2cc(/C=C/c4cc(O)cc5c4[C@H](c4cc(O)cc(O)c4)[C@@H](c4ccc(O)cc4)O5)ccc2O)O[C@@H]3c2ccc(O)cc2)cc1` [vitisin A], for which the IC50 in the data set with AChE [1] (ref 56) is 1.04 µM.

Take `O=C(OCc1cc(O)c(O[C@@H]2O[C@H](CO)[C@@H](O)[C@H](O)[C@H]2O)c(O)c1)c1cc(O)c(O)c(Oc2c(C(=O)OCc3cc(O)c(O[C@@H]4O[C@H](CO)[C@@H](O)[C@H](O)[C@H]4O)c(O)c3)cc(O)c(O)c2O)c1` [Compound 1, chestanin]: the IC50 against BChE (equine serum) is above 40 µM; in [2], 37 ± 3 µM; at MAO-B [3] it was above 40 µM; on Recombinant human MAO-A, above 40 µM. For the same molecule, the remaining activity at 10 µM was determined as 96.2 ± 3.9% at BChE (equine serum); 72.5 ± 2.1% in data set [2]; 67.2 ± 8.1% at MAO-B [3]; 91.7 ± 1.6% on Recombinant human MAO-A; 78.9 ± 0.3% at BACE-1. Further, in data set [2], the SI is above 1.1.

Consider `COc1cc2c(=O)oc3c(OC)c(O[C@@H]4O[C@@H](C)[C@H](O)[C@@H](O)[C@H]4O)cc4c(=O)oc(c1OC)c2c34` [Compound 3, 4′-O-(α-L-rhamnopyranosyl)-3,3′,4-tri-O-methylellagic acid], for which the IC50 on BChE (equine serum) is above 40 µM; in data set [2], 10.1 ± 0.4 µM; at MAO-B [3], 7.27 ± 0.16 µM; at Recombinant human MAO-A it was above 40 µM. Besides, the remaining activity at 10 µM on BChE (equine serum) came out at 83.3 ± 2.1%; in data set [2], 55.4 ± 3.4%; on MAO-B [3], 43.2 ± 3.7%; on Recombinant human MAO-A, 83 ± 6.3%; at BACE-1, 99.7 ± 0.4%. This molecule also gave an SI in data set [2] above 4.0. Also, the inhibition at 10 µM in data set [2] (read-out: Inhibition of AChE) was around 50%; against MAO-B [3] (10 µM), above 50%. Also, in [4], the MDCK cell viability entry was “slightly or non-toxic; also recorded: negligible effects; also recorded: non-toxic or slightly toxic”. The HL-60 cell viability entry in [5] was “negligible effects; also recorded: non-toxic or slightly toxic”. On AChE [6] (LB plots), the “Mode of AChE inhibition” value is on record as “competitively; also recorded: competitive but partly mixed; also recorded: competitive but partially mixed”. Further, the Ki on AChE [6] (secondary plots of LB slopes, substrate 0.05-1.0 mM, read-out: Ki for AChE) was 5.37 ± 0.62 µM; on MAO-B [8] (secondary plots of LB slopes, substrate 0.0375-0.6 mM, read-out: Ki for MAO-B), 2.25 ± 0.01 µM. Moreover, the “Reversibility of AChE inhibition” value on AChE [7] is reported as “reversibly; also recorded: reversible inhibitors”. The “Mode of MAO-B inhibition” value on MAO-B [8] (LB plots) is given as “competitive”. The “Reversibility of MAO-B inhibition” value at MAO-B [9] is recorded as “reversible inhibitors”.

On to `COc1cc2c(=O)oc3c(OC)c(O[C@@H]4O[C@H](CO)[C@@H](O)[C@H](O)[C@H]4O)cc4c(=O)oc(c1OC)c2c34` [Compound 2, 4′-O-(β-D-glucopyranosyl)-3,3′,4-tri-O-methylellagic acid], for which the IC50 was above 40 µM at BChE (equine serum), 46.4 ± 2.7 µM in data set [2], above 40 µM at MAO-B [3] and above 40 µM on Recombinant human MAO-A. Moreover, the remaining activity at 10 µM on BChE (equine serum) was determined as 90.8 ± 4.2%; in data set [2], 70.5 ± 5%; on MAO-B [3], 60.9 ± 5.2%; at Recombinant human MAO-A, 91.3 ± 7.9%; at BACE-1, 91.9 ± 1%. In addition, in [2], the SI is listed as above 0.9.

As for `O=C(O[C@@H]1Cc2c(O)cc(O)cc2O[C@@H]1c1cc(O)c(O)c(O)c1)c1cc(O)c(O)c(O)c1` [epigallocatechin gallate], the IC50 in the data set with AChE [1] (ref 52) was 14.8 µM.
